Assay [1] deals with T1, glucosylceramide synthase (GCS) (Homo sapiens, UniProt Q16739).
T1 construct: The obtained supernatant was used; host or cells: A549 cells (lysate supernatant after sonication)
T1 sequence (Q16739 1-394): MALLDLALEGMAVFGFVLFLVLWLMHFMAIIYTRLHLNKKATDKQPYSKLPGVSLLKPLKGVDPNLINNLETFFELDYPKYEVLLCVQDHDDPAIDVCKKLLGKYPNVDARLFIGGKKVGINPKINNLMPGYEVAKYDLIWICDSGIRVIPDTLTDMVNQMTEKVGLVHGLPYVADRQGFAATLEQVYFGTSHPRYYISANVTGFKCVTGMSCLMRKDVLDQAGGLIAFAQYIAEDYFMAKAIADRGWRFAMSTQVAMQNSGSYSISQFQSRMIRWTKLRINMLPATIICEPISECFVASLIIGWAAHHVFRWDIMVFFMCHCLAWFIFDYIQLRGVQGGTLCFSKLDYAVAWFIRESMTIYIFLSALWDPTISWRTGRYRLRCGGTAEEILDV
In words: GCS enzyme inhibition assay (A549 cell lysate, NBD C6-ceramide, HPLC fluorescence). It counts as biochemical. Conditions: inhibitory activity against GCS, 37° C., 90 minutes. In outline: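 Percent GCS activity was derived from the GlcCer share of Cer plus GlcCer areas, scaled from ibiglustat (0%) to DMSO (100%). Enzyme came from sonicated A549 lysate in 50 mM HEPES pH 7.3; 90 min incubation at 37° C, chloroform/methanol stop and extraction.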

The subject of assay [2] is GM1 production in Jurkat cells. In words: cells. Conditions: Homo sapiens, Jurkat, 72 h. It counts as cell-based.

The source of these data is patent US12673944B2, “Compounds having inhibitory activity against glucosylceramide synthase or pharmaceutically acceptable salt thereof, processes for preparing the same, and pharmaceutical compositions comprising the same” (YUHAN CORPORATION, priority 2019, dated 2026).

For `CC1(NC(=O)O[C@@H]2CN3CCC2CC3)CCOc2cc(-c3cccc(OC(F)(F)F)c3)ccc21` (stereo partly drawn) [Example 306, (S)-quinuclidin-3-yl (4-methyl-7-(3-(trifluoromethoxy)phenyl)chroman-4-yl)carbamate], the IC50 (commonly the concentration at which inhibition is half-maximal) was 0.5 nM in assay [1] and 3 nM in assay [2].

Consider `CC1(NC(=O)O[C@@H]2CN3CCC2CC3)CCOc2cc(-c3ccc4c(c3)OC(F)(F)O4)ccc21` (stereo partly drawn) [Example 307, (S)-quinuclidin-3-yl (7-(2,2-difluorobenzo[d][1,3]dioxol-5-yl)-4-methylchroman-4-yl)carbamate], for which the IC50 in assay [1] worked out at 1.07 nM; in assay [2] it was 3.1 nM.

Take `CCOc1c(C)cc(-c2ccc3c(c2)OCCC3(C)NC(=O)O[C@@H]2CN3CCC2CC3)cc1C` (stereo partly drawn) [Example 308, (S)-quinuclidin-3-yl (7-(4-ethoxy-3,5-dimethylphenyl)-4-methylchroman-4-yl)carbamate]: the figures for the IC50 in assay [1] and in assay [2] were 1.06 nM and 4.1 nM, respectively.

With `CC1(NC(=O)O[C@@H]2CN3CCC2CC3)CCOc2cc(-c3ccccc3C#N)ccc21` (stereo partly drawn) [Example 309, (S)-quinuclidin-3-yl (7-(2-cyanophenyl)-4-methylchroman-4-yl)carbamate], the concentration for half-maximal inhibition (IC50) in assay [1] is 5.77 nM; in assay [2], 37.2 nM.

Regarding `CC(C)(C)c1cccc(-c2ccc3c(c2)OCCC3(C)NC(=O)O[C@@H]2CN3CCC2CC3)c1` (stereo partly drawn) [Example 310, (S)-quinuclidin-3-yl (7-(3-(tert-butyl)phenyl)-4-methylchroman-4-yl)carbamate], the IC50 in assay [1] amounted to 0.23 nM; in assay [2], 0.2 nM.

`Cc1cscc1-c1ccc2c(c1)OCCC2(C)NC(=O)O[C@@H]1CN2CCC1CC2` (stereo partly drawn) [Example 311, (S)-quinuclidin-3-yl (4-methyl-7-(4-methylthiophen-3-yl)chroman-4-yl)carbamate]: the IC50 is 0.17 nM in assay [1] and 0.7 nM in assay [2].

`CC(C)(C)c1cccc(-c2ccc3c(c2)COCC3NC(=O)O[C@@H]2CN3CCC2CC3)c1` (stereo partly drawn) [Example 312, (S)-quinuclidin-3-yl (7-(3-(tert-butyl)phenyl)isochroman-4-yl)carbamate]: the IC50 in assay [1] was 5.62 nM; in assay [2], 28.8 nM.

Take `CC(C)c1cccc(-c2ccc3c(c2)COCC3NC(=O)O[C@@H]2CN3CCC2CC3)c1` (stereo partly drawn) [Example 313, (S)-quinuclidin-3-yl (7-(3-isopropylphenyl)isochroman-4-yl)carbamate]: the IC50 in assay [1] was determined as 3.89 nM; in assay [2], 34.5 nM.

With `CN1CCC(NC(=O)O[C@@H]2CN3CCC2CC3)c2ccc(-c3cccc(C(C)(C)C)c3)cc21` (stereo partly drawn) [Example 314, (S)-quinuclidin-3-yl (7-(3-(tert-butyl)phenyl)-1-methyl-1,2,3,4-tetrahydroquinolin-4-yl)carbamate], the IC50 in assay [1] came out at 6.47 nM; in assay [2], 56.3 nM.

On to `CN1CCC(NC(=O)O[C@@H]2CN3CCC2CC3)c2ccc(-c3coc4ccccc34)cc21` (stereo partly drawn) [Example 315, (S)-quinuclidin-3-yl (7-(benzofuran-3-yl)-1-methyl-1,2,3,4-tetrahydroquinolin-4-yl)carbamate], for which the IC50 in assay [1] worked out at 14.7 nM; in assay [2] it was 58.1 nM.

As to `O=C(NC1CCSc2ccc(-c3ccc(Cl)cc3)cc21)O[C@@H]1CN2CCC1CC2` (stereo partly drawn) [Example 316, (S)-quinuclidin-3-yl (6-(4-chlorophenyl)thiochroman-4-yl)carbamate], the concentration for half-maximal inhibition (IC50) in assay [1] came to 36.5 nM; in assay [2] it was 251 nM.

Take `O=C(NC1CCSc2cc(-c3cccc(F)c3)ccc21)O[C@@H]1CN2CCC1CC2` (stereo partly drawn) [Example 317, (S)-quinuclidin-3-yl (7-(3-fluorophenyl)thiochroman-4-yl)carbamate]: the results for the 50% inhibitory concentration (IC50) in assay [1] and in assay [2] were 2.94 nM and 13.8 nM, respectively.

For `O=C(NC1CCSc2cc(-c3cccc(Cl)c3)ccc21)O[C@@H]1CN2CCC1CC2` (stereo partly drawn) [Example 318, (S)-quinuclidin-3-yl (7-(3-chlorophenyl)thiochroman-4-yl)carbamate], the IC50 in assay [1] stood at 1.29 nM; in assay [2] it was 27.2 nM.

As to `O=C(NC1CCSc2cc(-c3cccc(C(F)(F)F)c3)ccc21)O[C@@H]1CN2CCC1CC2` (stereo partly drawn) [Example 319, (S)-quinuclidin-3-yl (7-(3-(trifluoromethyl)phenyl)thiochroman-4-yl)carbamate], the IC50 was 1.07 nM in assay [1] and 6.7 nM in assay [2].

As to `O=C(NC1CCSc2cc(-c3cccc(OC(F)(F)F)c3)ccc21)O[C@@H]1CN2CCC1CC2` (stereo partly drawn) [Example 320, (S)-quinuclidin-3-yl (7-(3-(trifluoromethoxy)phenyl)thiochroman-4-yl)carbamate], the half-inhibitory concentration (IC50) came to 1.5 nM in assay [1] and 13.8 nM in assay [2].

As to `COCOc1cccc(-c2ccc3c(c2)SCCC3NC(=O)O[C@@H]2CN3CCC2CC3)c1` (stereo partly drawn) [Example 321, (S)-quinuclidin-3-yl (7-(3-(methoxymethoxy)phenyl)thiochroman-4-yl)carbamate], the IC50 turned out to be 1 nM in assay [1] and 3.64 nM in assay [2].

With `CC(C)(C)c1cccc(-c2ccc3c(c2)SCCC3NC(=O)O[C@@H]2CN3CCC2CC3)c1` (stereo partly drawn) [Example 322, (S)-quinuclidin-3-yl (7-(3-(tert-butyl)phenyl)thiochroman-4-yl)carbamate], the results for the concentration for half-maximal inhibition (IC50) in assay [1] and in assay [2] were 1.78 nM and 5.88 nM, respectively.

For `O=C(NC1CCSc2cc(-c3cc(Cl)ccc3Cl)ccc21)O[C@@H]1CN2CCC1CC2` (stereo partly drawn) [Example 323, (S)-quinuclidin-3-yl (7-(2,5-dichlorophenyl)thiochroman-4-yl)carbamate], the figures for the IC50 in assay [1] and in assay [2] were 0.63 nM and 26.3 nM, respectively.

With `CCOc1cccc(-c2ccc3c(c2)SCCC3NC(=O)O[C@@H]2CN3CCC2CC3)c1` (stereo partly drawn) [Example 324, (S)-quinuclidin-3-yl (7-(3-ethoxyphenyl)thiochroman-4-yl)carbamate], the results for the IC50 in assay [1] and in assay [2] were 1.25 nM and 14.4 nM, respectively.

For the compound `CSc1cccc(-c2ccc3c(c2)SCCC3NC(=O)O[C@@H]2CN3CCC2CC3)c1` (stereo partly drawn) [Example 325, (S)-quinuclidin-3-yl (7-(3-(methylthio)phenyl)thiochroman-4-yl)carbamate], the 50% inhibitory concentration (IC50) in assay [1] came out at 0.58 nM; in assay [2], 6.13 nM.

Take `CN(C)c1cccc(-c2ccc3c(c2)SCCC3NC(=O)O[C@@H]2CN3CCC2CC3)c1` (stereo partly drawn) [Example 326, (S)-quinuclidin-3-yl (7-(3-(dimethylamino)phenyl)thiochroman-4-yl)carbamate]: the half-maximal inhibitory concentration (IC50) in assay [1] was found to be 0.64 nM; in assay [2], 10.3 nM.

For the compound `O=C(NC1CCSc2cc(-c3ccc4c(c3)OC(F)(F)O4)ccc21)O[C@@H]1CN2CCC1CC2` (stereo partly drawn) [Example 327, (S)-quinuclidin-3-yl (7-(2,2-difluorobenzo[d][1,3]dioxol-5-yl)thiochroman-4-yl)carbamate], the IC50 in assay [1] turned out to be 2.7 nM; in assay [2], 37.6 nM.

`O=C(NC1CCSc2cc(-c3coc4ccccc34)ccc21)O[C@@H]1CN2CCC1CC2` (stereo partly drawn) [Example 328, (S)-quinuclidin-3-yl (7-(benzofuran-3-yl)thiochroman-4-yl)carbamate]: the IC50 amounted to 1.18 nM in assay [1] and 13.8 nM in assay [2].

Regarding `CC1(C)CSc2ccc(-c3ccc(C(F)(F)F)cc3)cc2C1NC(=O)O[C@@H]1CN2CCC1CC2` (stereo partly drawn) [Example 329, (S)-quinuclidin-3-yl (3,3-dimethyl-6-(4-(trifluoromethyl)phenyl)thiochroman-4-yl)carbamate], the IC50 in assay [1] turned out to be 14.9 nM; in assay [2] it was 33.8 nM.

Consider `CC1(C)COc2cc(-c3cccc(F)c3)c(F)cc2C1NC(=O)O[C@@H]1CN2CCC1CC2` (stereo partly drawn) [Example 330, (S)-quinuclidin-3-yl (6-fluoro-7-(3-fluorophenyl)-3,3-dimethylchroman-4-yl)carbamate], for which the IC50 is 0.28 nM in assay [1] and 1.8 nM in assay [2].

For `CC1(C)COc2cc(-c3ccc(F)cc3)c(F)cc2C1NC(=O)O[C@@H]1CN2CCC1CC2` (stereo partly drawn) [Example 331, (S)-quinuclidin-3-yl (6-fluoro-7-(4-fluorophenyl)-3,3-dimethylchroman-4-yl)carbamate], the half-maximal inhibitory concentration (IC50) worked out at 0.36 nM in assay [1] and 3.7 nM in assay [2].

As for `CC1(C)COc2cc(-c3cccc(Cl)c3)c(F)cc2C1NC(=O)O[C@@H]1CN2CCC1CC2` (stereo partly drawn) [Example 332, (S)-quinuclidin-3-yl (6-fluoro-7-(3-chlorophenyl)-3,3-dimethylchroman-4-yl)carbamate], the values for the IC50 in assay [1] and in assay [2] were 0.39 nM and 0.9 nM, respectively.

With `CCc1cccc(-c2cc3c(cc2F)C(NC(=O)O[C@@H]2CN4CCC2CC4)C(C)(C)CO3)c1` (stereo partly drawn) [Example 333, (S)-quinuclidin-3-yl (7-(3-ethylphenyl)-6-fluoro-3,3-dimethylchroman-4-yl)carbamate], the values for the IC50 in assay [1] and in assay [2] were 0.45 nM and 0.8 nM, respectively.

Take `CCc1ccc(-c2cc3c(cc2F)C(NC(=O)O[C@@H]2CN4CCC2CC4)C(C)(C)CO3)cc1` (stereo partly drawn) [Example 334, (S)-quinuclidin-3-yl (7-(4-ethylphenyl)-6-fluoro-3,3-dimethylchroman-4-yl)carbamate]: the values for the IC50 in assay [1] and in assay [2] were 0.33 nM and 0.4 nM, respectively.

Regarding `COc1cccc(-c2cc3c(cc2F)C(NC(=O)O[C@@H]2CN4CCC2CC4)C(C)(C)CO3)c1` (stereo partly drawn) [Example 335, (S)-quinuclidin-3-yl (6-fluoro-7-(3-methoxyphenyl)-3,3-dimethylchroman-4-yl)carbamate], the IC50 in assay [1] came out at 0.35 nM; in assay [2], 2 nM.
